Test results reported in patent publication US7119229B2 (priority 2001, dated 2006).
Like-named read-outs stand apart in the source and are kept apart here.

Assays:
Format in all cases: cell-based
[1] = system: MCF-7 (human breast adenomatous tumor); experiment: SRB cytotoxicity assay, MCF7; settings: read-out: ED50 MCF7
Protocol: (§1) Human tumor cells, including MCF-7 (human breast adenomatous tumor), MCF-7/DOX (adriamycin resistant cell strain), MRS-SA (human uterine sarcoma), MES-SA/DX5 (adriamycin resistant cell strain), A 549 (human non-small cell lung), SKOV-3 (human ovarian), SKMEL-2 (human melanoma), XF-498 (human CNS), HCT-15 (human colon) were incubated at 37° C. in the presence of 5% CO2 using a DMEM culture medium. The respective cells were seeded into each well of 96-well plates at a concentration of 2×10^3˜5×10^3 cells/well. […] Each cell line of the resultant plates was fixed with trichloroacetic acid (TCA), stained with 0.4% SRB solution and rinsed with 1% acetic acid. Thereafter, the dye was dissolved in 10 mM Tris base to measure the optical density (OD) at 520 nm.

[2] = system: MCF-7/DOX (adriamycin resistant cell strain); experiment: SRB cytotoxicity assay, MCF-7/DOX; settings: Homo sapiens, MCF7-DOX, read-out: ED50 MCF-7/DOX
Protocol: as §1

[3] = system: MES-SA (human uterine sarcoma); experiment: SRB cytotoxicity assay, MES-SA; settings: read-out: ED50 MES-SA
Protocol: as §1

[4] = system: MES-SA/DX5 (adriamycin resistant cell strain); experiment: SRB cytotoxicity assay, MES-SA/DX5; settings: Homo sapiens, read-out: ED50 MES-SA/DX5
Protocol: as §1

[5] = system: A 549 (human non-small cell lung); experiment: SRB cytotoxicity assay, A549; settings: read-out: ED50 A549
Protocol: as §1

SKOV-3 (human ovarian) = experiment: SRB cytotoxicity assay, SK-OV-3; settings: 72 hours, read-out: ED50 SK-OV-3
Protocol: as §1

SKMEL-2 (human melanoma) = experiment: SRB cytotoxicity assay, SK-MEL-2; settings: read-out: ED50 SK-MEL-2
Protocol: as §1

XF-498 (human CNS) = experiment: SRB cytotoxicity assay, XF498; settings: 72 hours, read-out: ED50 XF498
Protocol: as §1

HCT-15 (human colon) = experiment: SRB cytotoxicity assay, HCT15; settings: read-out: ED50 HCT15
Protocol: as §1

[6] = system: BALB/c mouse spleen cell (responding) and DBA/2 mouse spleen cell (stimulating)
Protocol: MLR tests were carried out to determine the immunosuppressive effect of an immunosuppressive candidate material. When a responding cell (BALB/c mouse spleen cell) and a stimulating cell (DBA/2 mouse spleen cell) were cultured separately, the cells grew little. On the contrary, when the cells were simultaneously cultured, the cells were proliferated due to induction of an antigen-antibody reaction. The proliferated cells were treated with the immunosuppressive candidate material for measurement of the proliferation inhibitory extent.
After culturing for 72 hours at a CO2 incubator, a 20 μl MTS solution was added to each well, followed by further culturing for 2 to 4 hours and measuring OD at […] by using ELISA.

[7] = system: BALB/c mouse spleen cells, B cells activated with lipopolysaccharide (LPS); experiment: Immunosuppressive effect test using BALB/c mouse spleen cells, LPS (B cells); settings: 20 μg/ml lipopolysaccharide, 72 hours, MTS, FIGS. 2 and 3
Protocol: (§2) This test was carried out to determine the immunosuppressive effect of an immunosuppressive candidate material by checking anti-proliferation of T cells and B cells. To identify the proliferation inhibitory extent, responding cells (BALB/c mouse spleen cells) were treated with an immunosuppressive candidate material, lipopolysaccharide (LPS) as a B cell activator and concanvalin A (ConA) as a T cell activator. It is known that the responding cells treated with LPS induce proliferation of B cells and those treated with ConA induce proliferation of T cells.
(§3) Responding cells (BALB/c mouse spleen cells) were seeded into each well of 96-well plates at a concentration of 2×10^5 cells/well. […] After culturing for 72 hours at a CO2 incubator, a 20 μl MTS solution was added to each well, followed by further culturing for 2 to 4 hours and measuring OD at 490 nm using ELISA.

[8] = system: BALB/c mouse spleen cells, T cells activated with concanvalin A (ConA); experiment: Immunosuppressive effect test using BALB/c mouse spleen cells, ConA (T cells); settings: 2 μg/ml of ConA, 72 hours, MTS, FIGS. 2 and 3
Protocol: as §2, §3

| SMILES | EC50 ([1]; MCF7, 72 h) | EC50 ([2]; 72 h) | EC50 ([3]; 72 h) | EC50 ([4]; MES-SA/Dx5, 72 h) | EC50 ([5]; A549, 72 h) | EC50 (SKOV-3 (human ovarian)) | EC50 (SKMEL-2 (human melanoma); SK-MEL-2, 72 h) | EC50 (XF-498 (human CNS)) | EC50 (HCT-15 (human colon); HCT-15, 72 h) | immunosuppressive effect [6] | anti-proliferation of B cells [7] | anti-proliferation of T cells [8] | EC50 ([1]; MCF7, SRB, 72 hours) | EC50 ([2]; SRB, 72 hours) | EC50 ([3]; SRB, 72 hours) | EC50 ([4]; MES-SA/Dx5, SRB, 72 hours) | EC50 ([5]; A549, SRB, 72 hours) | EC50 (SKMEL-2 (human melanoma); SK-MEL-2, SRB, 72 hours) | EC50 (HCT-15 (human colon); HCT-15, SRB, 72 hours) |
| --- | --- | --- | --- | --- | --- | --- | --- | --- | --- | --- | --- | --- | --- | --- | --- | --- | --- | --- | --- |
| COc1cc2c(c(OC)c1OC)-c1ccc(SC)c(=O)cc1[C@@H](NC(=O)c1cccc(CO[N+](=O)[O-])c1)CC2 [Compound 12] | 0.02 nM | 28 nM | 0.01 nM | 115 nM | 0.1 nM | 0.3 nM | 0.1 nM | 0.2 nM | 0.1 nM | good immunosuppressive effect | remarkable anti-proliferous effect | remarkable anti-proliferous effect |  |  |  |  |  |  |  |
| CC(=O)O[C@H]1C(=O)[C@@]2(C)[C@H]([C@H](OC(=O)c3ccccc3)[C@]3(O)C[C@H](OC(=O)[C@H](O)[C@@H](NC(=O)c4ccccc4)c4ccccc4)C(C)=C1C3(C)C)[C@]1(OC(C)=O)CO[C@@H]1C[C@@H]2O [Taxol, reference compound] |  |  |  |  |  | 1.2 nM |  | 1.7 nM |  |  |  |  | 0.04 nM | 943 nM | 0.02 nM | 1150 nM | 0.3 nM | 0.1 nM | 0.1 nM |
